According to patent publication US8003312B2, “Multiplex cellular assays using detectable cell barcodes” (The Board of Trustees of the Leland Stanford Junior …, priority 2007, dated 2011):

How the values were obtained:
Format in all cases: cell-based, human
Stat1 phosphorylation = test: 96-well FCB drug screen in Jurkat cells: Stat1 phosphorylation induced by IFN-γ; details: 20 μM, 45 min before stimulation with anti-CD3, anti-CD28 and IFN-γ for 5 min
Experimental: (§1) FIG. 5. Use of FCB in drug screening platforms. […] (a) Layout of screening experiment. Jurkat cells were treated with 70 known small-molecule kinase or phosphatase inhibitors (20 μM), Jak inhibitor I (2 μM) or U0126 (20 μM) for 45 min before stimulation with 5 μg/ml anti-CD3 and anti-CD28 and 10 ng/ml IFN-γ for 5 min. (b) FCB setup for barcoding of 96-well plate. After fixation, cells were barcoded with Alexa 700-NHS (0, 0.06, 0.25 or 1 μg/ml) to delineate the four quadrants of the 96-well plate. Each quadrant was subdivided into four rows labeled with Pacific Blue-NHS (0, 0.04, 0.2 or 1 μg/ml) and six columns labeled with Alexa 488-NHS (0, 0.02, 0.06, 0.18, 0.5 or 1.5 μg/ml). Shown are pseudocolor FACS plots of the actual gating scheme used to deconvolute the samples in quadrant 4, row D (bottom right six samples in the plate). […] Wells with black triangles were excluded from the analysis due to high fluorescence of the drug in the phospho-protein fluorescence channels. Colored squares are drawn over wells analyzed in d. […]
(§2) Because most cell-based high-throughput screens use 96-well microtiter plates, we next addressed the question whether the technique could be adapted to a 96-well plate. […] We also calculated the Z′ factor from these samples, and it was 0.71 for Stat1 and 0.69 for ERK, indicating robust assay performance. […]

[1] = system: Stat1 and ERK phosphorylation; test: Titration of four screening hits in Jurkat cells using six-sample FCB (pStat1, pERK); details: 30 min before IFN-γ (10 ng/ml) and anti-CD3/28 (5 μg/ml each)
Experimental: FIG. 8. Detailed titration of four hits from Jurkat drug screening experiment (FIG. 5). a) Four compounds: Bay11-7082, Indirubin-3-monoxime, PP2, and ZM449829 were added to Jurkat cells at different concentrations for 30 min prior to stimulation with IFN-γ (10 ng/ml) and anti-CD3/28 (5 μg/ml each). The cells were fixed and permeabilized, then stained with pStat1 Ax647 and pERK Ax488 antibodies. Percent inhibition of phosphorylation was plotted against concentration of drugs and fitted with a logistic regression curve to obtain IC50 values. Numbers in the top right of each plot are the IC50 value in μM units. b) Lysates were prepared from the same cells used for phospho flow and analyzed by western blot with pStat1 and pERK antibodies. Drugs were applied at 20 μM (same concentration as initial screen) for western blot analysis.
Because a few of these hits were unexpected, we performed titration experiments using six-sample FCB on four of the compounds to validate the results (FIG. 8).
We calculated fold change of phosphorylation upon stimulation by dividing median fluorescence intensity (MFI) of stimulated samples by the MFI of unstimulated samples: FC=MFIstim/MFIunstim. For heat map analysis, FC was converted to log2 values to enhance visualization and so that samples showing no change have a value of zero. To measure drug activity, we calculated percent inhibition as follows: Percent Inhibition=1−((MFItreated ? MFIunstim)/(MFIstim ? MFIunstim)), where “treated” denotes drug treated (and stimulated) samples, “stim” denotes control stimulated (non drug treated) samples, and “unstim” denotes control unstimulated (non drug treated) samples. We calculated Z′-factor from control stimulated and unstimulated samples by the following: Z′-factor=1 ? ((3[…]SDstim 3[…]SDunstim)/(meanstim ? meanunstim)), where “SD” denotes standard deviation of the mean, and “mean” denotes the mean of either stimulated or unstimulated MFI values. Z′-factor is an indication of the robustness and suitability of an assay for high throughput screening, with values from 0.5 to 1 indicating an excellent assay, 0 to 0.5 indicating a usable assay, and less than 0 indicating the assay has too much noise or inadequate dynamic range.

ERK phosphorylation = test: 96-well FCB drug screen in Jurkat cells: T-cell receptor-mediated ERK phosphorylation; details: 20 μM, 45 min before stimulation with anti-CD3, anti-CD28 and IFN-γ for 5 min
Experimental: as §1, §2

Cc1ccc(S(=O)(=O)/C=C/C#N)cc1 [Bay11-7082]
inhibition of Stat1 phosphorylation (Stat1 phosphorylation): inhibited Stat1 phosphorylation potently
selectivity between ERK and Stat1 phosphorylation [1]: little selectivity
inhibition of ERK phosphorylation (ERK phosphorylation): 50%
